Measurements taken from patent publication US10821115B2, “Compounds that inhibit Mcl-1 protein” (priority 2017, dated 2020).
Like-named read-outs stand apart in the source and are kept apart here.

Legend:
[1] = test system: human multiple myeloma cell line, OPM-2; experiment: Cell viability assay (OPM-2 10 FBS), CellTiter-Glo; assay type: cell-based
Outline: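 OPM-2 cells at 3000 cells/well in RPMI 1640 with 10% FBS were exposed to serially diluted compounds for 16 h at 37 °C, 5% CO2.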

[2] = molecular target: recombinant human Mcl-1 (residues 171-327) / Bim interaction (Homo sapiens (Human), UniProt Q07820); experiment: biochemical; assay type: binding; settings: 0.1 nM Mcl-1(171-327), 0.05 nM biotin-Bim (51-76); read-out: Mcl-1 HTRF IC50
Sequence of recombinant human Mcl-1 (residues 171-327) / Bim interaction (Q07820 171-327): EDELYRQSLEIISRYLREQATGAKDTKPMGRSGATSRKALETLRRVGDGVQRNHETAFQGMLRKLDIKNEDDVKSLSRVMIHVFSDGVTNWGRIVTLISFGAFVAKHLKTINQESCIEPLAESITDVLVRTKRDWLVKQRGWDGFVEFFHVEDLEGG

[3] = Homo sapiens, OPM-2, 16 h, read-out: OPM-2 10% FBS IC50 IP, OPM-2 cells, 10% FBS, 16 h incubation
[4] = read-out: OPM-2 10% FBS IC50 IP, OPM-2 cells, 10% FBS, 16 h incubation

| Compound | IC50 [1, 3] [nM] | IC50 [2] [nM] | IC50 [1, 4] [nM] |
| --- | --- | --- | --- |
| CCCO[C@]1(CN2CCN(C3COC3)CC2)/C=C/C[C@H](C)[C@@H](C)S(=O)(=O)NC(=O)c2ccc3c(c2)N(C[C@@H]2CC[C@H]21)C[C@@]1(CCCc2cc(Cl)ccc21)CO3 [Example 352, (1S,3′R,6′R,7′R,8′E,11′S,12′R)-6-chloro-11′,12′-dimethyl-7′-((4-(3-oxetanyl)-1-piperazinyl)methyl)-7′-propoxy-3,4-dihydro-2H,15′H-spiro[naphthalene-1,22-[20]oxa[13]thia[1,14]diazatetracyclo [14.7.2.0~3,6~.0~19,24~]pentacosa[8,16,18,24]tetraen]-15′-one 13′,13′-dioxide] | 162 | 0.111 |  |
| CCCO[C@]1(CN2CCN3CCCC[C@@H]3C2)/C=C/C[C@H](C)[C@@H](C)S(=O)(=O)NC(=O)c2ccc3c(c2)N(C[C@@H]2CC[C@H]21)C[C@@]1(CCCc2cc(Cl)ccc21)CO3 [Example 353, (1S,3′R,6′R,7′R,8′E,11′S,12′R)-6-chloro-11′,12′-dimethyl-7′-((9aR)-octahydro-2H-pyrido[1,2-a]pyrazin-2-ylmethyl)-7′-propoxy-3,4-dihydro-2H,15′H-spiro[naphthalene-1,22′-[20]oxa[13]thia[1,14]diazatetracyclo [14.7.2.0~3,6~.0~19,24~]pentacosa[8,16,18,24]tetraen]-15′-one 13′,13′-dioxide] |  | 0.135 | 186 |
| CC(C)CO[C@]1(CN2CCN3CCCC[C@@H]3C2)/C=C/C[C@H](C)[C@@H](C)S(=O)(=O)NC(=O)c2ccc3c(c2)N(C[C@@H]2CC[C@H]21)C[C@@]1(CCCc2cc(Cl)ccc21)CO3 [Example 354, (1S,3′R,6′R,7′R,8′E,11′S,12′R)-6-chloro-11′,12′-dimethyl-7′-(2-methylpropoxy)-7′-((9aR)-octahydro-2H-pyrido[1,2-a]pyrazin-2-ylmethyl)-3,4-dihydro-2H,15′H-spiro[naphthalene-1,22′-[20]oxa[13]thia[1,14]diazatetracyclo [14.7.2.0~3,6~.0~19,24~]pentacosa[8,16,18,24]tetraen]-15′-one 13′,13′-dioxide] | 450 | 0.214 |  |
| CC(C)CO[C@]1(CN2CCN(C3COC3)CC2)/C=C/C[C@H](C)[C@@H](C)S(=O)(=O)NC(=O)c2ccc3c(c2)N(C[C@@H]2CC[C@H]21)C[C@@]1(CCCc2cc(Cl)ccc21)CO3 [Example 355] | 272 | 0.172 |  |
| CC(C)CO[C@]1(CN2CCN3CCOC[C@@H]3C2)/C=C/C[C@H](C)[C@@H](C)S(=O)(=O)NC(=O)c2ccc3c(c2)N(C[C@@H]2CC[C@H]21)C[C@@]1(CCCc2cc(Cl)ccc21)CO3 [Example 356, (1S,3′R,6′R,7′R,8′E,11′S,12′R)-6-chloro-7′-((9aS)-hexahydropyrazino[2,1-c][1,4]oxazin-8(1H)-ylmethyl)-11′,12′-dimethyl-7′-(2-methylpropoxy)-3,4-dihydro-2H,15′H-spiro[naphthalene-1,22′-[20]oxa[13]thia[1,14]diazatetracyclo [14.7.2.0~3,6~.0~19,24~]pentacosa[8,16,18,24]tetraen]-15′-one 13′,13′-dioxide] | 367 | 0.11 |  |
| CO[C@]1(CN2CCN3CCOC[C@@H]3C2)/C=C/C[C@H](C)[C@@H](CCO)S(=O)(=O)NC(=O)c2ccc3c(c2)N(C[C@@H]2CC[C@H]21)C[C@@]1(CCCc2cc(Cl)ccc21)CO3 [Example 357, (1S,3′R,6′R,7′R,8′E,11′S,12′R)-6-chloro-7′-((9aS)-hexahydropyrazino[2,1-c][1,4]oxazin-8(1H)-ylmethyl)-12′-(2-hydroxyethyl)-7′-methoxy-11′-methyl-3 ,4-dihydro-2H,15′H-spiro[naphthalene-1,22′-[20]oxa[13]thia[1,14]diazatetracyclo [14.7.2.0~3,6~.0~19,24~]pentacosa[8,16,18,24]tetraen]-15′-one 13′,13′-dioxide] | 118 | 0.067 |  |
| CO[C@]1(CN2CCN3CCCC[C@@H]3C2)/C=C/C[C@H](C)[C@@H](CC=O)S(=O)(=O)NC(=O)c2ccc3c(c2)N(C[C@@H]2CC[C@H]21)C[C@@]1(CCCc2cc(Cl)ccc21)CO3 [Example 360, ((1S,3′R,6′R,7′R,8′E,11′S,12′R)-6-Chloro-7′-methoxy-11′-methyl-7′-((9aR)-octahydro-2H-pyrido[1,2-a]pyrazin-2-ylmethyl)-13′,13′-dioxido-15′-oxo-3,4-dihydro-2H-spiro[naphthalene-1,22′-[20]oxa[13]thia[1,14]diazatetracyclo[14.7.2.0-3,6˜.0˜19,24˜]pentacosa[8,16,18,24]tetraen]-12′-yl)acetaldehyde] | 2410 | 1.07 |  |
| CO[C@@]1(CN2CCN3CCOC[C@@H]3C2)/C=C/C[C@H](C)[C@@H](CCN2CCOCC2)S(=O)(=O)NC(=O)c2ccc3c(c2)N(C[C@@H]2CC[C@H]21)C[C@@]1(CCCc2cc(Cl)ccc21)CO3 [Example 361, (1S,3′R,6′R,7′S,8′E,11′S,12′R)-6-chloro-7′-((9aS)-hexahydropyrazino[2,1-c][1,4]oxazin-8(1H)-ylmethyl)-7′-methoxy-11′-methyl-12′-(2-(4-morpholinyl)ethyl)-3,4-dihydro-2H,15′H-spiro[naphthalene-1,22′-[20]oxa[13]thia[1,14]diazatetracyclo [14.7.2.0~3,6~.0~19,24~]pentacosa[8,16,18,24]tetraen]-15′-one 13′,13′-dioxide] | 28 | 0.101 |  |
| CO[C@]1(CN2CCN3CCCC[C@@H]3C2)/C=C/C[C@H](C)[C@@H](CCN2CCOCC2)S(=O)(=O)NC(=O)c2ccc3c(c2)N(C[C@@H]2CC[C@H]21)C[C@@]1(CCCc2cc(Cl)ccc21)CO3 [Example 365, (1S,3′R,6′R,7′R,8′E,11′S,12′R)-6-chloro-7′-methoxy-11′-methyl-12′-(2-(4-morpholinyl)ethyl)-7′-((9aR)-octahydro-2H-pyrido[1,2-a]pyrazin-2-ylmethyl)-3,4-dihydro-2H,15′H-spiro[naphthalene-1,22′-[20]oxa[13]thia[1,14]diazatetracyclo [14.7.2.0~3,6~.0~19,24~]pentacosa[8,16,18,24]tetraen]-15′-one 13′,13′-dioxide] | 32 | 0.104 |  |
| CCCO[C@]1(CN2CCN(C(C)C)[C@H](C)C2)/C=C/C[C@H](C)[C@@H](C)S(=O)(=O)NC(=O)c2ccc3c(c2)N(C[C@@H]2CC[C@H]21)C[C@@]1(CCCc2cc(Cl)ccc21)CO3 [Example 368, (1S,3′R,6′R,7′R,8′E,11′S,12′R)-6-chloro-11′,12′-dimethyl-7′-(((3R)-3-methyl-4-(2-propanyl)-1-piperazinyl)methyl)-7′-propoxy-3,4-dihydro-2H,15′H-spiro[naphthalene-1,22′-[20]oxa[13]thia[1,14]diazatetracyclo [14.7.2.0~3,6~.0~19,24~]pentacosa[8,16,18,24]tetraen]-15′-one 13′,13′-dioxide] | 68 | 0.069 |  |
| COCC(COC)N1CCN(C[C@]2(OC)/C=C/C[C@H](C)[C@@H](C)S(=O)(=O)NC(=O)c3ccc4c(n3)N(C[C@@H]3CC[C@H]32)C[C@@]2(CCCc3cc(Cl)ccc32)CO4)CC1 [Example 371, (1S,3′R,6′R,7′S,8′E,11′S,12′R)-6-chloro-7′-methoxy-7′-((4-(2-methoxy-1-(methoxymethyl)ethyl)-1-piperazinyl)methyl)-11′,12′-dimethyl-3,4-dihydro-2H,15′H-spiro[naphthalene1,22′-[20]oxa[13]thia[1,14,25]triazatetracyclo [14.7.2.0~3,6~.0~19,24~]pentacosa[8,16,18,24]tetraen]-15′-one 13′,13′-dioxide] | 43 | 0.101 |  |
| CO[C@@]1(CN2CCN3CCCC[C@@H]3C2)/C=C/C[C@H](C)[C@@H](C)S(=O)(=O)NC(=O)c2ccc3c(n2)N(C[C@@H]2CC[C@H]21)C[C@@]1(CCCc2cc(Cl)ccc21)CO3 [Example 372, (1S,3′R,6′R,7′S,8′E,11′S,12′R)-6-chloro-7′-methoxy-11′,12′-dimethyl-7′-((9aR)-octahydro-2H-pyrido[1,2-a]pyrazin-2-ylmethyl)-3,4-dihydro-2H,15′H-spiro[naphthalene-1,22′-[20]oxa[13]thia[1,14,25]triazatetracyclo [14.7.2.0~3,6~.0~19,24~]pentacosa[8,16,18,24]tetraen]-15′-one 13′,13′-dioxide] | 85 | 0.175 |  |
| C[C@@H]1[C@@H](C)CCCC2(CN3CCOC[C@H]3CO2)[C@@H]2CC[C@H]2CN2C[C@@]3(CCCc4cc(Cl)ccc43)COc3ccc(cc32)C(=O)NS1(=O)=O (stereo partly drawn) [Example 400, (1S,3′R,6′R,7′S,9a″S,11′S,12′R)-6-chloro-11′,12′-dimethyl-3,4,6″,7″,9″,9a″-hexahydro-1″H,2H,15′H-dispiro[naphthalene-1,22′-[20]oxa[13]thia[1,14]diazatetracyclo[14.7.2.0-3,6˜.0˜19,24˜]pentacosa[16,18,24]triene-7′,3″-[1,4]oxazino[3,4-c][1,4]oxazin]-15′-one 13′,13′-dioxide] |  | 1.1 | 2870 |
| C[C@@H]1[C@@H](C)CCCC2(CN(S(C)(=O)=O)CCO2)[C@@H]2CC[C@H]2CN2C[C@@]3(CCCc4cc(Cl)ccc43)COc3ccc(cc32)C(=O)NS1(=O)=O (stereo partly drawn) [Example 466] |  | 0.9 | 446 |
| CCO[C@]1(CN2CCN3CCOC[C@@H]3C2)CCC[C@H](C)[C@@H](CCOC)S(=O)(=O)NC(=O)c2ccc3c(c2)N(C[C@@H]2CC[C@H]21)C[C@@]1(CCCc2cc(Cl)ccc21)CO3 [Example 518, (1S,3′R,6′R,7′R,11′S,12′R)-6-chloro-7′-ethoxy-7′-((9aS)-hexahydropyrazino[2,1-c][1,4]oxazin-8(1H)-ylmethyl)-12′-(2-methoxyethyl)-11′-methyl-3,4-dihydro-2H,15′H-spiro[naphthalene-1,22′-[20]oxa[13]thia[1,14]diazatetracyclo[14.7.2.0˜3,6˜.0˜19,24˜]pentacosa[16,18,24]trien]-15′-one 13′,13′-dioxide] | 224 | 0.164 |  |
